Consider one molecule from patent US11980674B2, “Imaging of metastatic or recurrent cancer” (Blue Earth Diagnostics Limited, priority 2020, dated 2024).

Series [1] concerns known prostate carcinoma recurrence. The experiment in a line: PET time activity curves (FIG. 3). Type of series: in vivo, human. The conditions noted are these: for time at which plateau was reached: remained constant throughout the imaging period. On the procedure:
Regions in marrow (ilium), muscle (gluteus), and bladder reached a plateau at 4.5 minutes that remained constant throughout the imaging period.

The conditions of series [2]: human, in vivo. On the procedure:
FIGS. 1a and 1b show accumulation of FACBC in the Virchow's node when the FACBC is injected into the left arm.
In some embodiments, the right arm may be preferred as stasis in the axillary vein upon injection in the left arm may be misinterpreted as a metastatic lymph node called Virchow's node, which is located in the left supraclavicular fossa (the area above the left clavicle, or collar bone). For example, FIGS. 1a and 1b show accumulation of FACBC in the Virchow's node when the FACBC is injected into the left arm.

In the case of `N[C@]1(C(=O)O)C[C@@H](F)C1` [fluciclovine, anti-1-amino-3-^18F-fluorocyclobutane-1-carboxylic acid], the “time at which plateau was reached” value in series [1] (bladder), in series [1] (marrow (ilium)) and in series [1] (muscle (gluteus)) was 4.5 min in each case. Further, the “time of maximum uptake” value in series [1] (known prostate carcinoma recurrence) worked out at 4.5 min. Also, the “plateau of uptake lasting to” value in series [1] (known prostate carcinoma recurrence, after maximum at 4.5 minutes) stood at 30 min. This molecule also returned a gradual clearance in series [1] (known prostate carcinoma recurrence, after plateau, out to 60 minutes) of 9 %/min. In addition, the “standardized uptake value (SUV)” value in series [2] is more than 200.
